Data taken from patent US20040024068A1, “Antimicrobial compounds” (priority 1998, published 2004).
≈ marks a conversion by molar mass, not a printed value. Read-outs that look alike come from different tables or passages of the source.

Columns and labels:
[1] = tested on: Mycobacterium smegmatis mc^2155 and InhA mutants; test: MIC on agar plates by 2-fold serial dilutions, M. smegmatis strains; assay type: cell-based; conditions: for MIC: Mycolicibacterium smegmatis
[2] = tested on: E. coli strain AGT11 versus isogenic parent AG100; test: Isoniazid resistance of E. coli in the presence of 250 μM hydrogen peroxide; assay type: cell-based, Escherichia coli; conditions: triclosan-resistant strain AGT11; 250 μM hydrogen peroxide present
[3] = tested on: E. coli K12 strain AG100 and triclosan resistant mutants; test: Triclosan MIC by agar serial dilution plates (2.0 fold steps), AG100 and mutants selected on triclosan; assay type: cell-based, Escherichia coli; conditions: for MIC: agar dilution plates
[4] = tested on: hypersusceptible host strain AG100A bearing pBR322-derived plasmids; test: Triclosan MIC encoded by plasmid clones in hypersusceptible host AG100A; assay type: cell-based; conditions: Escherichia coli
[5] = tested on: E. coli strains AG100, AG100A, AGT11, AGT11K; test: Inhibition of growth rate in broth (liquid) culture; assay type: cell-based, Escherichia coli; conditions: for IC50: Escherichia coli, 1 h, 1 h after addition
[6] = tested on: E. coli strains AG100, AG100A, AGT11, AGT11K; test: Cell lysis in broth (liquid) culture (loss of absorbance with loss of viable cfu); assay type: cell-based, Escherichia coli
E. coli K-12 derivatives = test: microbe, parasite or virus in culture; assay type: cell-based, Escherichia coli; conditions: for MIC: Escherichia coli
[7] = tested on: clinical strains of E. coli; test: Triclosan MIC of clinical strains from blood samples; assay type: cell-based; conditions: Escherichia coli
M. smegmatis = conditions: cited from earlier work
M. tuberculosis = conditions: cited from earlier work

SMILES: NNC(=O)c1ccncc1 [isoniazid]
- MIC ([1]; MC^2155): 7 µg/mL (≈ 51 µM)
- relative MIC (S.D.) isoniazid (7H9) ([1]; strain mc^2155/pMD31::inhA^+): >64
- relative MIC (S.D.) isoniazid (7H9) ([1]; strain mc^2155 wild type): 1.0
- isoniazid resistance relative to isogenic parent AG100 [2]: several times

SMILES: Oc1cc(Cl)ccc1Oc1ccc(Cl)cc1Cl [triclosan, 2,4,4′-trichlor-2′-hydroxydiphenyl ether]
- MIC ([3]; Escherichia coli, strain AG100 (wild-type)): 0.28 µg/mL (≈ 0.967 µM)
- MIC ([3]; Escherichia coli, strain AG100A (AG100 ΔacrAB::kan)): 0.018 µg/mL (≈ 0.0622 µM)
- MIC ([3]; Escherichia coli, strain AGT11 (AG100 fabI G93V)): 41 µg/mL (≈ 142 µM)
- MIC ([3]; Escherichia coli, strain AGT11K (AGT11 ΔacrAB::kan)): 2 to 4 µg/mL (≈ 6.91 to 13.8 µM)
- MIC of strain divided by MIC of AG1000 ([3]; strain AG100 (fabI none), inactivated locus acrAB): 0.063
- MIC of strain divided by MIC of AG1000 ([3]; strain AG100 (fabI none), inactivated locus mar): 0.71
- MIC of strain divided by MIC of AG1000 ([3]; strain AG100 (fabI none), inactivated locus none): 1
- MIC ([3]; strain AG100 (wild-type)): 0.28 ± 0.04 µg/mL (≈ 0.967 µM)
- MIC of strain divided by MIC of AG1000 ([3]; strain AGT7 (fabI mutation NI), inactivated locus none): 1.7
- MIC of strain divided by MIC of AG1000 ([3]; strain AGT7, inactivated locus acrAB): 0.071
- MIC of strain divided by MIC of AG1000 ([3]; strain AGT7, inactivated locus mar): 1.7
- MIC of strain divided by MIC of AG1000 ([3]; strain AGT8 (fabI mutation NI), inactivated locus none): 4
- MIC of strain divided by MIC of AG1000 ([3]; strain AGT8, inactivated locus acrAB): 0.25
- MIC of strain divided by MIC of AG1000 ([3]; strain AGT8, inactivated locus mar): 3.4
- MIC of strain divided by MIC of AG1000 ([3]; strain AGT9 (fabI mutation NI), inactivated locus none): 2.3
- MIC of strain divided by MIC of AG1000 ([3]; strain AGT9, inactivated locus acrAB): 0.32
- MIC of strain divided by MIC of AG1000 ([3]; strain AGT9, inactivated locus mar): 2.3
- MIC ([3]; strain AGT11K (AGT11 ΔacrAB::kan)): 3.2 µg/mL (≈ 11.1 µM)
- MIC of strain divided by MIC of AG1000 ([3]; strain AGT21 (fabI G93V), inactivated locus acrAB): 11.4
- MIC of strain divided by MIC of AG1000 ([3]; strain AGT21 (fabI G93V), inactivated locus mar): 145
- MIC of strain divided by MIC of AG1000 ([3]; strain AGT21 (fabI G93V), inactivated locus none): 145
- MIC of strain divided by MIC of AG1000 ([3]; strain AGT23 (fabI M159T), inactivated locus acrAB): 1.7
- MIC of strain divided by MIC of AG1000 ([3]; strain AGT23 (fabI M159T), inactivated locus none): 11.4
- MIC of strain divided by MIC of AG1000 ([3]; strain AGT25 (fabI F203L), inactivated locus acrAB): 0.57
- MIC of strain divided by MIC of AG1000 ([3]; strain AGT25 (fabI F203L), inactivated locus none): 4.6
- MIC ([4]; clones pLYT1 through pLYT10 (AGT11 library) in hypersensitive strain AG100A): ~4 µg/mL (≈ 13.8 µM)
- MIC ([4]; vector alone (pBR322) in AG100A): 0.005 to 0.02 µg/mL (≈ 0.0173 to 0.0691 µM)
- IC50 ([5]; read-out: Concentration of triclosan which inhibited growth rate 50%, strain AG100 (wild type), OD530): ~0.15 µg/mL (≈ 0.518 µM)
- IC50 ([5]; read-out: Concentration of triclosan which inhibited growth rate 50%, strain AG100A (ΔacrAB)): ~0.02 µg/mL (≈ 0.0691 µM)
- Concentration of triclosan which inhibited growth rate 90% ([5]; strain AG100 (wild type)): 0.6 µg/mL
- Concentration of triclosan which inhibited growth rate 90% ([5]; strain AG100A (ΔacrAB)): 0.05 µg/mL
- Concentration of triclosan which caused lysis ([6]; strain AG100 (wild type), within 2 h): 8 µg/mL
- amount of triclosan required to give lysis ([6]; strains AG100, AG100A and AGT11K together): 2 to 8 µg/mL
- MIC ([1]; MC^2155, mc^2155, triclosan in 7H9): 14 µg/mL (≈ 48.4 µM)
- MIC ([1]; MC^2155, mc^2155, triclosan in LB, mean (+/− S.D.) of 4-5 experiments): 0.61 µg/mL (≈ 2.11 µM)
- MIC (E. coli K-12 derivatives; AG100, span of Tables 3-5, read-out: MIC (determined on agar)): 0.17 to 0.28 µg/mL (≈ 0.587 to 0.967 µM)
- MIC (E. coli K-12 derivatives; strain AG100, mean of two to five determinations, read-out: MIC): 0.17 µg/mL (≈ 0.587 µM)
- MIC (E. coli K-12 derivatives; strain GC4488, read-out: MIC): 0.08 µg/mL (≈ 0.276 µM)
- MIC (E. coli K-12 derivatives; strain HH180, read-out: MIC): 0.07 µg/mL (≈ 0.242 µM)
- change of triclosan MIC by overexpression of acrAB (E. coli K-12 derivatives; strain AG100B (mutation in acrR) vs AG100): doubled
- MIC ([7]; read-out: mean triclosan MIC, multiply resistant clinical strains E3, E19, HO99 overexpressing marA or soxS): 0.33 µg/mL
- MIC ([7]; read-out: mean triclosan MIC, remaining 26 multiply resistant clinical strains overexpressing neither marA or soxS): 0.13 µg/mL
- MIC ([7]; read-out: mean triclosan MIC, 14 of 15 antibiotic-susceptible clinical strains (Series S)): 0.09 µg/mL
- MIC ([7]; read-out: triclosan MIC, multiply resistant clinical strain E10, overexpressing neither marA nor soxS): 0.38 µg/mL
- MIC ([7]; read-out: triclosan MIC, multiply resistant clinical strain HO 17, overexpressing marA): 0.15 µg/mL
- MIC ([7]; read-out: triclosan MIC, susceptible clinical strain S20, overexpressing marA): 0.27 µg/mL
- susceptibility to triclosan (M. smegmatis): susceptible
- susceptibility to triclosan (M. tuberculosis): not sensitive
